Test results as given in patent publication US11001569B2, “6-membered heteroaromatic substituted cyanoindoline derivatives as NIK inhibitors” (Janssen Pharmaceutica NV, priority 2016, dated 2021).
Read-outs that look alike come from different tables or passages of the source. Blank lines part the entries; values can stand above or below the compound they belong to.

Legend:
[1] = system: JJN-3 (NIK translocated) multiple myeloma cells; experiment: Antiproliferative activity on JJN-3 multiple myeloma cells (CellTiter-Glo); type: cell-based, human; settings: JJN-3 (NIK translocated) cells, 96 hr treatment, averaged values, read-out: JJN-3 Proliferation inhibition (IC50 (nM))
Outline: (§1)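 Cells plated at 15000 (JJN3) or 20000 (KMS12BM) per well and treated 96 h at 37° C, 5% CO2, final DMSO 0.3%, 9-point 1:3 dilutions. Viability by CellTiter-Glo luminescence; time-zero blank subtracted, growth expressed as percent of untreated control.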

[2] = system: P-IKKα levels in L363 (NIK translocated multiple myeloma) cells; experiment: Effect of compounds on P-IKKα levels in L363 cells (Mesoscale sandwich immuno-assay); type: cell-based, human; settings: 2 hr treatment, averaged values, read-out: Inhibition of pIKKα_L-363 (IC50 (nM))
Outline: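 BAFF-stimulated (1 μg/ml stock) L363 cells preincubated 24 hr at 37° C, then treated 2 hr with compound (final 1% DMSO, 8-point 1:3 dilutions). Lysate P-IKKα measured by Mesoscale sandwich immunoassay; IC50 from sigmoidal fit of % inhibition versus log concentration.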

[3] = target: recombinant human NF-kappaB-inducing Kinase (NIK/MAP3K14) (Homo sapiens, UniProt Q99558); experiment: Inhibition of auto-phosphorylation of recombinant human NIK/MAP3K14 activity (AlphaScreen); type: biochemical; settings: 25 microM ATP, averaged over all measurements on all batches
[4] = system: KMS12-BM (NIK WT) multiple myeloma cells; experiment: Antiproliferative activity on KMS12-BM multiple myeloma cells (CellTiter-Glo); type: cell-based, human; settings: 96 hr treatment, averaged values, read-out: KMS-12 Proliferation inhibition (IC50 (nM))
Outline: as §1

Chain of recombinant human NF-kappaB-inducing Kinase (NIK/MAP3K14) (Q99558 whole entry): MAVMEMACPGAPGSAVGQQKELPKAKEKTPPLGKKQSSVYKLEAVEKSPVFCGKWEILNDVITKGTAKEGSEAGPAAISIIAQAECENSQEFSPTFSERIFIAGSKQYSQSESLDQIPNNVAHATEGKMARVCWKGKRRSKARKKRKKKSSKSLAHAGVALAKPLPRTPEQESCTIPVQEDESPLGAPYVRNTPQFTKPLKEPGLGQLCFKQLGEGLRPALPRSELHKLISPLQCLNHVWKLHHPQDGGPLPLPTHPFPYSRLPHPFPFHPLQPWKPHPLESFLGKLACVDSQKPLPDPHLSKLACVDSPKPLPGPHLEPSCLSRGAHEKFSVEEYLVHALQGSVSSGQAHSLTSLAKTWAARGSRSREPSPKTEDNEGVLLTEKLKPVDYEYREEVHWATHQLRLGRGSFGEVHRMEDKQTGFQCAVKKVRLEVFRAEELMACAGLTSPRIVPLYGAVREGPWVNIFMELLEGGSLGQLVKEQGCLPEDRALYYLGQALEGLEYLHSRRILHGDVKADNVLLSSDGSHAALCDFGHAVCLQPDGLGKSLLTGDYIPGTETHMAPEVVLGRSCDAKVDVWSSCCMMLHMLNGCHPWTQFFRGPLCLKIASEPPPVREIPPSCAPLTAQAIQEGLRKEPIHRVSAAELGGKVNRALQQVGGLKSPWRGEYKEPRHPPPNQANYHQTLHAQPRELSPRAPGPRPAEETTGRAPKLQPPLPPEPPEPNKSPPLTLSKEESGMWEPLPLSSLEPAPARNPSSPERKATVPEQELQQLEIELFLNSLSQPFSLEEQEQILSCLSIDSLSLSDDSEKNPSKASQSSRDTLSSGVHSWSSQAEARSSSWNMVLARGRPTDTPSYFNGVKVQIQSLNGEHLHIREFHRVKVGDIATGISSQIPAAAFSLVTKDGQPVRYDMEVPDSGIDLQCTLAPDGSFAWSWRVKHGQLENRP

Structure (SMILES): CN1CCCC(COc2ncc(Cl)cc2Nc2nccc(-c3cc(C#N)c4c(c3)[C@@](C)(CO)CN4)n2)C1 (single isomer, unassigned) [Compound 55]
melting point: 204 °C | IC50 [1]: 69 nM | IC50 [2]: 67.6 nM | IC50 [3]: 3.8 nM | IC50 [4]: 1350 nM

Structure (SMILES): Cc1cnc(OCC2COCCN2C)c(Nc2nccc(-c3cc(C#N)c4c(c3)[C@@](C)(CO)CN4)n2)c1 (single isomer, unassigned) [Compound 148]
melting point: 154 °C | IC50 [1]: 135 nM | IC50 ([2]; Homo sapiens, L-363, 2 h): 13.8 nM | IC50 [3]: 8.5 nM | IC50 ([4]; Homo sapiens, KMS-12-BM, 96 h): > 10000 nM

Structure (SMILES): Cc1cc(Nc2nccc(-c3cc(C#N)c4c(c3)[C@@](C)(CO)CN4)n2)c(=O)n(CCN2CCCOCC2)c1 [Compound 20i]
melting point: 287 °C | IC50 ([1]; Homo sapiens, JJN-3, 96 h): 41 nM | IC50 ([2]; Homo sapiens, L-363, 2 h): 1.5 nM | IC50 [3]: 2.3 nM | IC50 ([4]; Homo sapiens, KMS-12-BM, 96 h): > 10000 nM

Structure (SMILES): C[C@]1(CO)CNc2c(C#N)cc(-c3ccnc(Nc4cc(C#N)cnc4CCC4CC4)n3)cc21 [Compound 64]
melting point: 145 °C | IC50 ([1]; Homo sapiens, JJN-3, 96 h): 35 nM | IC50 ([2]; Homo sapiens, L-363, 2 h): 27.5 nM | IC50 [3]: 4.7 nM | IC50 ([4]; Homo sapiens, KMS-12-BM, 96 h): 6460 nM

Structure (SMILES): Cc1cnc(OCC2CN(C)CCO2)c(Nc2nccc(-c3cc(C#N)c4c(c3)[C@@](C)(CO)CN4)n2)c1 (single isomer, unassigned) [Compound 151]
melting point: 114 °C | IC50 ([1]; Homo sapiens, JJN-3, 96 h): 66 nM | IC50 [2]: 13.8 nM | IC50 [3]: 5.5 nM | IC50 ([4]; Homo sapiens, KMS-12-BM, 96 h): > 10000 nM

Structure (SMILES): Cc1nc(/C=C/C(=O)N(C)C)ccc1Nc1nccc(-c2cc(C#N)c3c(c2)[C@@](C)(CO)CN3)n1 [Compound 73]
melting point: 231 °C | IC50 ([1]; Homo sapiens, JJN-3, 96 h): 144 nM | IC50 ([2]; Homo sapiens, L-363, 2 h): ~13 nM | IC50 [3]: 1.6 nM | IC50 ([4]; Homo sapiens, KMS-12-BM, 96 h): ~234 nM

Structure (SMILES): Cc1cnc(OC2CCN(C)CC2)c(Nc2nccc(-c3cc(C#N)c4c(c3)[C@@](C)(CO)CN4)n2)c1 [Compound 146]
melting point: 135 °C | IC50 ([1]; Homo sapiens, JJN-3, 96 h): 5.2 nM | IC50 ([2]; Homo sapiens, L-363, 2 h): 4.1 nM | IC50 [3]: 2.8 nM | IC50 ([4]; Homo sapiens, KMS-12-BM, 96 h): 7080 nM

Structure (SMILES): Cc1cnc(OCC2COCCN2C)c(Nc2nccc(-c3cc(C#N)c4c(c3)[C@@](C)(CO)CN4)n2)c1 (single isomer, unassigned) [Compound 149]
melting point: 146 °C | IC50 [1]: 29 nM | IC50 [2]: 7.8 nM | IC50 [3]: 8.9 nM | IC50 [4]: > 10000 nM

Structure (SMILES): CC(C)(O)c1ccc(Nc2nccc(-c3cc(C#N)c4c(c3)[C@@](C)(CO)CN4)n2)c(CCC2CC2)n1 [Compound 81]
melting point: 318 °C | IC50 ([1]; Homo sapiens, JJN-3, 96 h): 513 nM | IC50 ([2]; Homo sapiens, L-363, 2 h): 20.9 nM | IC50 [3]: 4.7 nM | IC50 ([4]; Homo sapiens, KMS-12-BM, 96 h): > 10000 nM

Structure (SMILES): Cc1ncc(C#N)cc1Nc1nccc(-c2cc(C#N)c3c(c2)[C@@](C)(CO)CN3)n1 [Compound 50]
melting point: 247 °C | IC50 ([1]; Homo sapiens, JJN-3, 96 h): 145 nM | IC50 ([2]; Homo sapiens, L-363, 2 h): 4.2 nM | IC50 [3]: 1.3 nM | IC50 ([4]; Homo sapiens, KMS-12-BM, 96 h): 6610 nM

Structure (SMILES): C[C@]1(CO)CNc2c(C#N)cc(-c3ccnc(Nc4cc(C#N)cnc4OCC4CC4)n3)cc21 [Compound 74]
melting point: 206 °C | IC50 ([1]; Homo sapiens, JJN-3, 96 h): 141 nM | IC50 ([2]; Homo sapiens, L-363, 2 h): ~120 nM | IC50 [3]: 16.2 nM | IC50 ([4]; Homo sapiens, KMS-12-BM, 96 h): > 10000 nM

Structure (SMILES): COc1nc(/C=C/C(=O)N(C)C)ccc1Nc1nccc(-c2cc(C#N)c3c(c2)[C@@](C)(CO)CN3)n1 [Compound 48]
melting point: 192 °C | IC50 ([1]; Homo sapiens, JJN-3, 96 h): ~295 nM | IC50 ([2]; Homo sapiens, L-363, 2 h): 1.2 nM | IC50 [3]: 2.9 nM | IC50 ([4]; Homo sapiens, KMS-12-BM, 96 h): > 10000 nM

Structure (SMILES): CN1CCCC(COc2ncc(Cl)cc2Nc2nccc(-c3cc(C#N)c4c(c3)[C@@](C)(CO)CN4)n2)C1 (single isomer, unassigned) [Compound 56]
melting point: 126 °C | IC50 [1]: 7 nM | IC50 [2]: ~7240 nM | IC50 [3]: 3.5 nM | IC50 [4]: ~148 nM

Structure (SMILES): C[C@]1(CO)CNc2c(C#N)cc(-c3ccnc(Nc4cc(Cl)cnc4C4CC4)n3)cc21 [Compound 46]
melting point: 234 °C | IC50 ([1]; Homo sapiens, JJN-3, 96 h): 28 nM | IC50 ([2]; Homo sapiens, L-363, 2 h): 4.7 nM | IC50 [3]: 3 nM | IC50 ([4]; Homo sapiens, KMS-12-BM, 96 h): ~7940 nM

Structure (SMILES): COCCOc1ncc(C)cc1Nc1nccc(-c2cc(C#N)c3c(c2)[C@@](C)(CO)CN3)n1 [Compound 69]
melting point: 186 °C | IC50 ([1]; Homo sapiens, JJN-3, 96 h): 263 nM | IC50 ([2]; Homo sapiens, L-363, 2 h): ~129 nM | IC50 [3]: 3.2 nM | IC50 ([4]; Homo sapiens, KMS-12-BM, 96 h): > 10000 nM

Structure (SMILES): Cn1cc(Cl)cc(Nc2nccc(-c3cc(C#N)c4c(c3)[C@@](C)(CO)CN4)n2)c1=O [Compound 13i]
melting point: 306 °C | IC50 ([1]; Homo sapiens, JJN-3, 96 h): 31 nM | IC50 ([2]; Homo sapiens, L-363, 2 h): 0.9 nM | IC50 [3]: 1.9 nM | IC50 ([4]; Homo sapiens, KMS-12-BM, 96 h): > 10000 nM

Structure (SMILES): CN(C)C(=O)CCc1ccc(Nc2nccc(-c3cc(C#N)c4c(c3)[C@@](C)(CO)CN4)n2)c(CCC2CC2)n1 [Compound 89]
melting point: 301 °C | IC50 ([1]; Homo sapiens, JJN-3, 96 h): 912 nM | IC50 ([2]; Homo sapiens, L-363, 2 h): 14.8 nM | IC50 [3]: 3.6 nM | IC50 ([4]; Homo sapiens, KMS-12-BM, 96 h): > 10000 nM

Structure (SMILES): Cc1cnc(OCC2CC2)c(Nc2nccc(-c3cc(C#N)c4c(c3)[C@@](C)(CO)CN4)n2)c1 [Compound 86]
melting point: 206 °C | IC50 ([1]; Homo sapiens, JJN-3, 96 h): 1180 nM | IC50 ([2]; Homo sapiens, L-363, 2 h): 53.7 nM | IC50 [3]: 12 nM | IC50 ([4]; Homo sapiens, KMS-12-BM, 96 h): > 10000 nM

The remaining lines, values ahead:

melting point: 189 °C | IC50 ([1]; Homo sapiens, JJN-3, 96 h): 115 nM | IC50 ([2]; Homo sapiens, L-363, 2 h): 2.1 nM | IC50 [3]: 3.9 nM | IC50 ([4]; Homo sapiens, KMS-12-BM, 96 h): > 10000 nM
Structure (SMILES): Cc1cc(Nc2nccc(-c3cc(C#N)c4c(c3)[C@@](C)(CO)CN4)n2)c(C)nc1OCC1COC1 [Compound 160]

melting point: 209 °C | IC50 ([1]; Homo sapiens, JJN-3, 96 h): 63 nM | IC50 ([2]; Homo sapiens, L-363, 2 h): 40.7 nM | IC50 [3]: 15.8 nM | IC50 ([4]; Homo sapiens, KMS-12-BM, 96 h): > 10000 nM
Structure (SMILES): COc1ncc(C(F)(F)F)cc1Nc1nccc(-c2cc(C#N)c3c(c2)[C@@](C)(CO)CN3)n1 [Compound 183]

melting point: 179 °C | IC50 ([1]; Homo sapiens, JJN-3, 96 h): 89 nM | IC50 ([2]; Homo sapiens, L-363, 2 h): 5.9 nM | IC50 [3]: 5.6 nM | IC50 ([4]; Homo sapiens, KMS-12-BM, 96 h): > 10000 nM
Structure (SMILES): Cc1cc(Nc2nccc(-c3cc(C#N)c4c(c3)[C@@](C)(CO)CN4)n2)c(C)nc1OCC1(C)COC1 [Compound 159]

melting point: 263 °C | IC50 ([1]; Homo sapiens, JJN-3, 96 h): 30 nM | IC50 ([2]; Homo sapiens, L-363, 2 h): 2.8 nM | IC50 [3]: 1.7 nM | IC50 ([4]; Homo sapiens, KMS-12-BM, 96 h): > 10000 nM
Structure (SMILES): Cc1cc(Nc2nccc(-c3cc(C#N)c4c(c3)[C@@](C)(CO)CN4)n2)c(C)cn1 [Compound 167]

melting point: 121 °C | IC50 ([1]; Homo sapiens, JJN-3, 96 h): 1180 nM | IC50 ([2]; Homo sapiens, L-363, 2 h): 1180 nM | IC50 [3]: 102 nM | IC50 ([4]; Homo sapiens, KMS-12-BM, 96 h): 1660 nM
Structure (SMILES): Cc1ncc(C2CCN(C)CC2)cc1Nc1nccc(-c2cc(C#N)c3c(c2)[C@@](C)(CO)CN3)n1 [Compound 164]

melting point: 156 °C | IC50 ([1]; Homo sapiens, JJN-3, 96 h): 49 nM | IC50 ([2]; Homo sapiens, L-363, 2 h): 110 nM | IC50 [3]: 15.1 nM | IC50 ([4]; Homo sapiens, KMS-12-BM, 96 h): > 10000 nM
Structure (SMILES): Cc1cnc(CCNC2CC2)c(Nc2nccc(-c3cc(C#N)c4c(c3)[C@@](C)(CO)CN4)n2)c1 [Compound 182]

melting point: 180 °C | IC50 ([1]; Homo sapiens, JJN-3, 96 h): 240 nM | IC50 [2]: 9.3 nM | IC50 [3]: 5.8 nM | IC50 ([4]; Homo sapiens, KMS-12-BM, 96 h): ~5890 nM
Structure (SMILES): Cc1cnc(OC2CN(C)CC2F)c(Nc2nccc(-c3cc(C#N)c4c(c3)[C@@](C)(CO)CN4)n2)c1 (stereo partly drawn) [Compound 153]

melting point: 260 °C | IC50 ([1]; Homo sapiens, JJN-3, 96 h): 39 nM | IC50 ([2]; Homo sapiens, L-363, 2 h): 2.4 nM | IC50 [3]: 3 nM | IC50 ([4]; Homo sapiens, KMS-12-BM, 96 h): > 10000 nM
Structure (SMILES): COc1nc(C)c(Nc2nccc(-c3cc(C#N)c4c(c3)[C@@](C)(CO)CN4)n2)cc1C [Compound 168]

melting point: 220 °C | IC50 [1]: 81 nM | IC50 [2]: 19.5 nM | IC50 [3]: 12 nM | IC50 [4]: ~2880 nM
Structure (SMILES): Cc1cnc(OC2CCN(C)CC2F)c(Nc2nccc(-c3cc(C#N)c4c(c3)[C@@](C)(CO)CN4)n2)c1 (stereo partly drawn) [Compound 155]
